Measurements from BigSolDB 2.1.

CC1=CC(=O)[N-]S(=O)(=O)O1.[K+]
Details | solubility (mole fraction)
in ethanol, 277.1 K | 0.000123
in ethanol, 282.39 K | 0.000154
in ethanol, 287.47 K | 0.000176
in ethanol, 292.3 K | 0.0002
in ethanol, 297.55 K | 0.000226
in ethanol, 302.65 K | 0.000259
in ethanol, 307.9 K | 0.0003
in ethanol, 312.93 K | 0.000396
in ethanol, 317.87 K | 0.000496
in ethanol, 322.9 K | 0.000634
in methanol, 277.7 K | 0.000156
in methanol, 281.79 K | 0.000173
in methanol, 286.1 K | 0.000189
in methanol, 290.39 K | 0.000205
in methanol, 294.2 K | 0.000222
in methanol, 298.51 K | 0.000238
in methanol, 302.21 K | 0.000256
in methanol, 307.8 K | 0.000288
in methanol, 311.39 K | 0.000313
in methanol, 315.47 K | 0.000341
in methanol, 319.3 K | 0.000371
in methanol, 322.8 K | 0.000401
in water, 277.98 K | 0.000151
in water, 281.23 K | 0.000167
in water, 284.73 K | 0.000186
in water, 288.35 K | 0.000207
in water, 294.9 K | 0.000249
in water, 298.02 K | 0.000271
in water, 301.03 K | 0.000292
in water, 304.01 K | 0.000314
in water, 307.07 K | 0.000338
in water, 310.24 K | 0.000363
in water, 313.53 K | 0.00039
in water, 317.3 K | 0.000419
in water, 322.3 K | 0.000474
